pIC50: −log10 of the molar value. Numbered stars: 1 amine (or outer) side, 2 acyl side, 3 side chain; on linkers, the order of the positions; unused ones are H or OH. Bridge positions count the residues as written; N and C are the ends. Square brackets hold non-standard residues; d marks the D form. Peptide text beside a SMILES is read from it. * marks the point of attachment. Bip = N[C@@H](Cc1ccc(-c2ccccc2)cc1)C(=O)O; Phe(3-Me) = Cc1cccc(C[C@H](N)C(=O)O)c1; γGlu = O=C(O)[C@H](CCC(=O)[*:2])N[*:1]; βAsp = O=C(O)[C@H](CC(=O)[*:2])N[*:1]; Cha = N[C@@H](CC1CCCCC1)C(=O)O; Cit = NC(=O)NCCC[C@H](N)C(=O)O; Carboxymethyl = O=C(O)C*; Orn = NCCC[C@H](N)C(=O)O; Aun = NCCCCCCCCCCC(=O)O; Dab = NCC[C@H](N)C(=O)O; Dap = NC[C@H](N)C(=O)O; AEEA = NCCOCCOCC(=O)O
What follows are compounds tested against T1, PD-1/PD-L1 interaction (PE-labeled human PD-L1-Ig binding to Jurkat cell line over-expressing human PD-1) (Homo sapiens, UniProt Q15116) (assay: Jurkat-PD-1 Cell Binding High-Content Screening Assay (CBA)). Details: Jurkat cell line over-expressing human PD-1; PE-labeled PD-L1-Ig 20 nM final; read-out: Jurkat hPD1-PDL1 IC50.
T1 construct: expressed in transfected cells; host or cells: Jurkat
Type: cell-based
Method: Example 2: Jurkat-PD-1 Cell Binding High-Content Screening Assay (CBA)
Phycoerythrin (PE) was covalently linked to the Ig epitope tag of human PD-L1-Ig and fluorescently-labeled PD-L1-Ig was used for binding studies with a Jurkat cell line over-expressing human PD-1 (Jurkat-PD-1). Briefly, 8×10^3 Jurkat-hPD-1 cells were seeded into 384 well plates in 20 μl of DMEM supplemented with 10% fetal calf serum. 100 nl of compound was added to cells followed by incubation at 37° C. for 2 h. Then, 5 μl of PE-labeled PD-L1-Ig (20 nM final), diluted in DMEM supplemented with 10% fetal calf serum. After 1 hour incubation, cells were fixed with 4% paraformaldehyde in dPBS containing 10 μg/ml Hoechst 33342 and then washed 3× in 100 μl dPBS. Data was collected and processed using a Cell Insight NXT High Content Imager and associated software.

T1 sequence (Q15116 25-288): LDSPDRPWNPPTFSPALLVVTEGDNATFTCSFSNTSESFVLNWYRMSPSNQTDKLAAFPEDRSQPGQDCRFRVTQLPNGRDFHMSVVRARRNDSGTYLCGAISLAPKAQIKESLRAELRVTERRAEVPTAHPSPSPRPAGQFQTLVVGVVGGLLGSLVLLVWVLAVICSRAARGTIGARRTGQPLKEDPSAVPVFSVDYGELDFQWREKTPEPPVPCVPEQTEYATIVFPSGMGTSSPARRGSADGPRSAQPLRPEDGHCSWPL

pIC50 | SMILES
8.18 | Cc1cccc(C[C@@H]2NC(=O)[C@H](CC(=O)O)NC(=O)[C@H](Cc3ccc(OCC(=O)O)cc3)NC(=O)[C@H](CN)NC(=O)CSC[C@@H](C(=O)N[C@@H](CCC(=O)NCCCCCCCCCCC(=O)O)C(=O)O)NC(=O)[C@H]([C@@H](C)O)NC(=O)[C@H](C(C)C)NC(=O)[C@H](CC3CCCCC3)NC(=O)[C@H](CCN)NC(=O)[C@@H](CC(C)C)NC(=O)[C@H](CCCN)NC(=O)[C@H](CCCNC(N)=O)NC(=O)[C@H](Cc3ccc(-c4ccccc4)cc3)NC(=O)[C@H](C(C)C)NC2=O)c1 [Compound 1024] ({CH2CO}-[Dap]Y(Carboxymethyl)D[Phe(3-Me)]V[Bip][Cit][Orn][dL][Dab][Cha]VTC[γGlu][Aun]-OH; thioether N-14)
7.97 | Cc1cccc(C[C@@H]2NC(=O)[C@H](CC(=O)O)NC(=O)[C@H](Cc3ccc(OCC(=O)O)cc3)NC(=O)[C@H](CN)NC(=O)CSC[C@@H](C(=O)N[C@@H](CC(=O)NCCCCCCCCCCC(=O)O)C(=O)O)NC(=O)[C@H]([C@@H](C)O)NC(=O)[C@H](C(C)C)NC(=O)[C@H](CC3CCCCC3)NC(=O)[C@H](CCN)NC(=O)[C@@H](CC(C)C)NC(=O)[C@H](CCCN)NC(=O)[C@H](CCCNC(N)=O)NC(=O)[C@H](Cc3ccc(-c4ccccc4)cc3)NC(=O)[C@H](C(C)C)NC2=O)c1 [Compound 1025] ({CH2CO}-[Dap]Y(Carboxymethyl)D[Phe(3-Me)]V[Bip][Cit][Orn][dL][Dab][Cha]VTC[βAsp][Aun]-OH; thioether N-14)
8.06 | Cc1cccc(C[C@@H]2NC(=O)[C@H](CC(=O)O)NC(=O)[C@H](Cc3ccc(OCC(=O)O)cc3)NC(=O)[C@H](CN)NC(=O)CSC[C@@H](C(=O)N[C@@H](CC(=O)O)C(=O)NCCCCCCCCCCC(=O)O)NC(=O)[C@H]([C@@H](C)O)NC(=O)[C@H](C(C)C)NC(=O)[C@H](CC3CCCCC3)NC(=O)[C@H](CCN)NC(=O)[C@@H](CC(C)C)NC(=O)[C@H](CCCN)NC(=O)[C@H](CCCNC(N)=O)NC(=O)[C@H](Cc3ccc(-c4ccccc4)cc3)NC(=O)[C@H](C(C)C)NC2=O)c1 [Compound 1026] ({CH2CO}-[Dap]Y(Carboxymethyl)D[Phe(3-Me)]V[Bip][Cit][Orn][dL][Dab][Cha]VTCD[Aun]-OH; thioether N-14)
7.77 | Cc1cccc(C[C@@H]2NC(=O)[C@H](CC(=O)O)NC(=O)[C@H](Cc3ccc(OCC(=O)O)cc3)NC(=O)[C@H](CN)NC(=O)CSC[C@@H](C(=O)N[C@@H](CCC(=O)O)C(=O)NCCCCCCCCCCC(=O)O)NC(=O)[C@H]([C@@H](C)O)NC(=O)[C@H](C(C)C)NC(=O)[C@H](CC3CCCCC3)NC(=O)[C@H](CCN)NC(=O)[C@@H](CC(C)C)NC(=O)[C@H](CCCN)NC(=O)[C@H](CCCNC(N)=O)NC(=O)[C@H](Cc3ccc(-c4ccccc4)cc3)NC(=O)[C@H](C(C)C)NC2=O)c1 [Compound 1027] ({CH2CO}-[Dap]Y(Carboxymethyl)D[Phe(3-Me)]V[Bip][Cit][Orn][dL][Dab][Cha]VTCE[Aun]-OH; thioether N-14)
8.13 | Cc1cccc(C[C@@H]2NC(=O)[C@H](CC(=O)O)NC(=O)[C@H](Cc3ccc(OCC(=O)O)cc3)NC(=O)[C@H](CN)NC(=O)CSC[C@@H](C(=O)N[C@@H](C)C(=O)NCCOCCOCC(=O)NCCCCCCCCCCC(=O)O)NC(=O)[C@H]([C@@H](C)O)NC(=O)[C@H](C(C)C)NC(=O)[C@H](CC3CCCCC3)NC(=O)[C@H](CCN)NC(=O)[C@@H](CC(C)C)NC(=O)[C@H](CCCN)NC(=O)[C@H](CCCNC(N)=O)NC(=O)[C@H](Cc3ccc(-c4ccccc4)cc3)NC(=O)[C@H](C(C)C)NC2=O)c1 [Compound 1029] ({CH2CO}-[Dap]Y(Carboxymethyl)D[Phe(3-Me)]V[Bip][Cit][Orn][dL][Dab][Cha]VTCA[AEEA][Aun]-OH; thioether N-14)
8.37 | Cc1cccc(C[C@@H]2NC(=O)[C@H](CC(=O)O)NC(=O)[C@H](Cc3ccc(OCC(=O)O)cc3)NC(=O)[C@H](CN)NC(=O)CSC[C@@H](C(=O)NCCOCCOCC(=O)N[C@@H](CCC(=O)NCCCCCCCCCCC(=O)O)C(=O)O)NC(=O)[C@H]([C@@H](C)O)NC(=O)[C@H](C(C)C)NC(=O)[C@H](CC3CCCCC3)NC(=O)[C@H](CCN)NC(=O)[C@@H](CC(C)C)NC(=O)[C@H](CCCN)NC(=O)[C@H](CCCNC(N)=O)NC(=O)[C@H](Cc3ccc(-c4ccccc4)cc3)NC(=O)[C@H](C(C)C)NC2=O)c1 [Compound 1030] ({CH2CO}-[Dap]Y(Carboxymethyl)D[Phe(3-Me)]V[Bip][Cit][Orn][dL][Dab][Cha]VTC[AEEA][γGlu][Aun]-OH; thioether N-14)
8.17 | Cc1cccc(C[C@@H]2NC(=O)[C@H](CC(=O)O)NC(=O)[C@H](Cc3ccc(OCC(=O)O)cc3)NC(=O)[C@H](CN)NC(=O)CSC[C@@H](C(=O)NCCOCCOCC(=O)N[C@@H](CC(=O)NCCCCCCCCCCC(=O)O)C(=O)O)NC(=O)[C@H]([C@@H](C)O)NC(=O)[C@H](C(C)C)NC(=O)[C@H](CC3CCCCC3)NC(=O)[C@H](CCN)NC(=O)[C@@H](CC(C)C)NC(=O)[C@H](CCCN)NC(=O)[C@H](CCCNC(N)=O)NC(=O)[C@H](Cc3ccc(-c4ccccc4)cc3)NC(=O)[C@H](C(C)C)NC2=O)c1 [Compound 1031] ({CH2CO}-[Dap]Y(Carboxymethyl)D[Phe(3-Me)]V[Bip][Cit][Orn][dL][Dab][Cha]VTC[AEEA][βAsp][Aun]-OH; thioether N-14)
8.21 | Cc1cccc(C[C@@H]2NC(=O)[C@H](CC(=O)O)NC(=O)[C@H](Cc3ccc(OCC(=O)O)cc3)NC(=O)[C@H](CN)NC(=O)CSC[C@@H](C(=O)NCCOCCOCC(=O)N[C@@H](CC(=O)O)C(=O)NCCCCCCCCCCC(=O)O)NC(=O)[C@H]([C@@H](C)O)NC(=O)[C@H](C(C)C)NC(=O)[C@H](CC3CCCCC3)NC(=O)[C@H](CCN)NC(=O)[C@@H](CC(C)C)NC(=O)[C@H](CCCN)NC(=O)[C@H](CCCNC(N)=O)NC(=O)[C@H](Cc3ccc(-c4ccccc4)cc3)NC(=O)[C@H](C(C)C)NC2=O)c1 [Compound 1032] ({CH2CO}-[Dap]Y(Carboxymethyl)D[Phe(3-Me)]V[Bip][Cit][Orn][dL][Dab][Cha]VTC[AEEA]D[Aun]-OH; thioether N-14)
8.06 | Cc1cccc(C[C@@H]2NC(=O)[C@H](CC(=O)O)NC(=O)[C@H](Cc3ccc(OCC(=O)O)cc3)NC(=O)[C@H](CN)NC(=O)CSC[C@@H](C(=O)NCCOCCOCC(=O)N[C@@H](CCC(=O)O)C(=O)NCCCCCCCCCCC(=O)O)NC(=O)[C@H]([C@@H](C)O)NC(=O)[C@H](C(C)C)NC(=O)[C@H](CC3CCCCC3)NC(=O)[C@H](CCN)NC(=O)[C@@H](CC(C)C)NC(=O)[C@H](CCCN)NC(=O)[C@H](CCCNC(N)=O)NC(=O)[C@H](Cc3ccc(-c4ccccc4)cc3)NC(=O)[C@H](C(C)C)NC2=O)c1 [Compound 1033] ({CH2CO}-[Dap]Y(Carboxymethyl)D[Phe(3-Me)]V[Bip][Cit][Orn][dL][Dab][Cha]VTC[AEEA]E[Aun]-OH; thioether N-14)
8.18 | Cc1cccc(C[C@@H]2NC(=O)[C@H](CC(=O)O)NC(=O)[C@H](Cc3ccc(OCC(=O)O)cc3)NC(=O)[C@H](CN)NC(=O)CSC[C@@H](C(=O)N[C@@H](CCC(=O)NCCOCCOCC(=O)NCCCCCCCCCCC(=O)O)C(=O)O)NC(=O)[C@H]([C@@H](C)O)NC(=O)[C@H](C(C)C)NC(=O)[C@H](CC3CCCCC3)NC(=O)[C@H](CCN)NC(=O)[C@@H](CC(C)C)NC(=O)[C@H](CCCN)NC(=O)[C@H](CCCNC(N)=O)NC(=O)[C@H](Cc3ccc(-c4ccccc4)cc3)NC(=O)[C@H](C(C)C)NC2=O)c1 [Compound 1034] ({CH2CO}-[Dap]Y(Carboxymethyl)D[Phe(3-Me)]V[Bip][Cit][Orn][dL][Dab][Cha]VTC[γGlu][AEEA][Aun]-OH; thioether N-14)
8.05 | Cc1cccc(C[C@@H]2NC(=O)[C@H](CC(=O)O)NC(=O)[C@H](Cc3ccc(OCC(=O)O)cc3)NC(=O)[C@H](CN)NC(=O)CSC[C@@H](C(=O)N[C@@H](CC(=O)NCCOCCOCC(=O)NCCCCCCCCCCC(=O)O)C(=O)O)NC(=O)[C@H]([C@@H](C)O)NC(=O)[C@H](C(C)C)NC(=O)[C@H](CC3CCCCC3)NC(=O)[C@H](CCN)NC(=O)[C@@H](CC(C)C)NC(=O)[C@H](CCCN)NC(=O)[C@H](CCCNC(N)=O)NC(=O)[C@H](Cc3ccc(-c4ccccc4)cc3)NC(=O)[C@H](C(C)C)NC2=O)c1 [Compound 1035] ({CH2CO}-[Dap]Y(Carboxymethyl)D[Phe(3-Me)]V[Bip][Cit][Orn][dL][Dab][Cha]VTC[βAsp][AEEA][Aun]-OH; thioether N-14)
8.17 | Cc1cccc(C[C@@H]2NC(=O)[C@H](CC(=O)O)NC(=O)[C@H](Cc3ccc(OCC(=O)O)cc3)NC(=O)[C@H](CN)NC(=O)CSC[C@@H](C(=O)N[C@@H](CC(=O)O)C(=O)NCCOCCOCC(=O)NCCCCCCCCCCC(=O)O)NC(=O)[C@H]([C@@H](C)O)NC(=O)[C@H](C(C)C)NC(=O)[C@H](CC3CCCCC3)NC(=O)[C@H](CCN)NC(=O)[C@@H](CC(C)C)NC(=O)[C@H](CCCN)NC(=O)[C@H](CCCNC(N)=O)NC(=O)[C@H](Cc3ccc(-c4ccccc4)cc3)NC(=O)[C@H](C(C)C)NC2=O)c1 [Compound 1036] ({CH2CO}-[Dap]Y(Carboxymethyl)D[Phe(3-Me)]V[Bip][Cit][Orn][dL][Dab][Cha]VTCD[AEEA][Aun]-OH; thioether N-14)

Reference: patent US20260022142A1, “MACROCYCLIC IMMUNOMODULATORS” (Bristol-Myers Squibb Company, priority 2022, published 2026)
